Test results: patent US8198268B2, “Tianeptine sulfate salt forms and methods of making and using the same” (Janssen Biotech, Inc., priority 2008, dated 2012)

Test system: mouse
Assay: Behavioral despair test in mouse (forced swim test), IP administration
[1] = STUDY A, 150 mg/kg i.p. 30 min prior to testing, 150 mg/kg
[2] = STUDY A, 150 mg/kg i.p. 30 min prior to testing, hemisulfate monohydrate, 150 mg/kg

For `CN1c2ccccc2C(NCCCCCCC(=O)O)c2ccc(Cl)cc2S1(=O)=O` (stereo not shown) [tianeptine sodium, reference compound], the “Duration of Immobility % change from control” value [1] was −50% and the “Duration of Immobility mean ± s.e.m.” value [1] was 102.0 ± 13.0 s.

In the case of `CN(C)CCCN1c2ccccc2CCc2ccccc21` [Imipramine, reference compound], the “Duration of Immobility mean ± s.e.m.” value (STUDY A, 32 mg/kg i.p. 30 min prior to testing) is reported as 64.1 ± 16.1 s, the “Duration of Immobility % change from control” value (STUDY A, 32 mg/kg i.p. 30 min prior to testing, 32 mg/kg) is reported as −68% and the “Duration of Immobility % change from control” value (STUDY A, 32 mg/kg i.p. 30 min prior to testing, listed as imipramine hydrochloride, 32 mg/kg) is reported as −68%. The “Duration of Immobility % change from control” value (STUDY B, 32 mg/kg i.p. 30 min prior to testing, 32 mg/kg) was −88% and the “Duration of Immobility % change from control” value (STUDY B, 32 mg/kg i.p. 30 min prior to testing, listed as imipramine hydrochloride, 32 mg/kg) was −88%.

`CN1c2ccccc2C(NCCCCCCC(=O)O)c2ccc(Cl)cc2S1(=O)=O` (stereo not shown) [tianeptine hemisulfate monohydrate, 7-[(3-chloro-6,11-dihydro-6-methyldibenzo[c,f][1,2]thiazepin-11-yl)amino]heptanoic acid S,S-dioxide hemisulfate monohydrate] was tested, and the “Duration of Immobility mean ± s.e.m.” value (STUDY A, 100 mg/kg i.p. 30 min prior to testing) was 83.1 ± 21.2 s, the “Duration of Immobility % change from control” value (STUDY A, 100 mg/kg i.p. 30 min prior to testing, hemisulfate monohydrate, 100 mg/kg) was −59% and the “Duration of Immobility % change from control” value [2] was −43%. For the same compound, the “Duration of Immobility mean ± s.e.m.” value [2] was 115.5 ± 13.6 s, the “Duration of Immobility mean ± s.e.m.” value (STUDY A, 200 mg/kg i.p. 30 min prior to testing) was 108.8 ± 19.8 s and the “Duration of Immobility % change from control” value (STUDY A, 200 mg/kg i.p. 30 min prior to testing, hemisulfate monohydrate, 200 mg/kg) was −46%. For the same compound, the “abnormal behavior prior to the test” value (STUDY B, 30 mg/kg and 60 mg/kg i.p.) was “abnormal behavior (including Straub tail and circling) was observed in all ten mice”, the “Duration of Immobility mean ± s.e.m.” value (STUDY B, 30 mg/kg i.p. 30 min prior to testing) was 25.8 ± 8.7 s and the “Duration of Immobility % change from control” value (STUDY B, 30 mg/kg i.p. 30 min prior to testing, hemisulfate monohydrate, 30 mg/kg) was −86%. For the same compound, the “Duration of Immobility mean ± s.e.m.” value (STUDY B, 60 mg/kg i.p. 30 min prior to testing) was 29.7 ± 9.7 s, the “Duration of Immobility % change from control” value (STUDY B, 60 mg/kg i.p. 30 min prior to testing, hemisulfate monohydrate, 60 mg/kg) was −83% and the “conclusion of STUDIES A and B” value (dose-range 30 mg/kg-200 mg/kg i.p.) was “antidepressant-like activity”.
